Legend:
[1] = target: T1, Mineralocorticoid receptor (Homo sapiens) (UniProt P08235); experiment: Antagonist activity against human mineralocorticoid receptor as displacement of radioligand; format: functional
T1 sequence (whole entry): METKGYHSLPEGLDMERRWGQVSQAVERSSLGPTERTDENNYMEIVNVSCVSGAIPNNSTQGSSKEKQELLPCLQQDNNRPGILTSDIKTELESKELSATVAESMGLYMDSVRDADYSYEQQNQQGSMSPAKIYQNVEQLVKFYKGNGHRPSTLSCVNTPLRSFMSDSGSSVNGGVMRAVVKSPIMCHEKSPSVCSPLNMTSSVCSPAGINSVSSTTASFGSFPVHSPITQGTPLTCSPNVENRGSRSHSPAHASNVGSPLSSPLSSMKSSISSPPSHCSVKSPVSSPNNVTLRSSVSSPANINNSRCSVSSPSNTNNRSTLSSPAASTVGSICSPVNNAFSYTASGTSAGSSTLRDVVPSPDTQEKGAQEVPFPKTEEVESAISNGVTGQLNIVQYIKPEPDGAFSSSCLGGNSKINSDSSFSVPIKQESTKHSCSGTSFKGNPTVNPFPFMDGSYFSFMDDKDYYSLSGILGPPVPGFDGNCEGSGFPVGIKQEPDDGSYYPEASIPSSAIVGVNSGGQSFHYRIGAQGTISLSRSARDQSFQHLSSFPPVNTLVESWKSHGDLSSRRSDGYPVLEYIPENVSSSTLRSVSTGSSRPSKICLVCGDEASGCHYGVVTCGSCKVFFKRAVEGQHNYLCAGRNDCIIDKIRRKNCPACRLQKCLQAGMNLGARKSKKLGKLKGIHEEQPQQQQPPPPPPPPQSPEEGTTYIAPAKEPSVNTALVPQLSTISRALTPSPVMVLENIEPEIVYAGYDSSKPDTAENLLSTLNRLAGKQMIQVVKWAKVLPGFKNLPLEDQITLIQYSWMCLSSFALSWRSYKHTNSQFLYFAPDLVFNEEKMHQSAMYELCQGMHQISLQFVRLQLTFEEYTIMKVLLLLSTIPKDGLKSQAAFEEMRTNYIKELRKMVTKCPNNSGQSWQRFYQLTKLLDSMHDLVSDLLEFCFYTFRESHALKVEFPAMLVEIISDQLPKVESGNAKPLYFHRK

[2] = target: T2, Glucocorticoid receptor (Homo sapiens) (UniProt P04150)
T2 sequence (whole entry): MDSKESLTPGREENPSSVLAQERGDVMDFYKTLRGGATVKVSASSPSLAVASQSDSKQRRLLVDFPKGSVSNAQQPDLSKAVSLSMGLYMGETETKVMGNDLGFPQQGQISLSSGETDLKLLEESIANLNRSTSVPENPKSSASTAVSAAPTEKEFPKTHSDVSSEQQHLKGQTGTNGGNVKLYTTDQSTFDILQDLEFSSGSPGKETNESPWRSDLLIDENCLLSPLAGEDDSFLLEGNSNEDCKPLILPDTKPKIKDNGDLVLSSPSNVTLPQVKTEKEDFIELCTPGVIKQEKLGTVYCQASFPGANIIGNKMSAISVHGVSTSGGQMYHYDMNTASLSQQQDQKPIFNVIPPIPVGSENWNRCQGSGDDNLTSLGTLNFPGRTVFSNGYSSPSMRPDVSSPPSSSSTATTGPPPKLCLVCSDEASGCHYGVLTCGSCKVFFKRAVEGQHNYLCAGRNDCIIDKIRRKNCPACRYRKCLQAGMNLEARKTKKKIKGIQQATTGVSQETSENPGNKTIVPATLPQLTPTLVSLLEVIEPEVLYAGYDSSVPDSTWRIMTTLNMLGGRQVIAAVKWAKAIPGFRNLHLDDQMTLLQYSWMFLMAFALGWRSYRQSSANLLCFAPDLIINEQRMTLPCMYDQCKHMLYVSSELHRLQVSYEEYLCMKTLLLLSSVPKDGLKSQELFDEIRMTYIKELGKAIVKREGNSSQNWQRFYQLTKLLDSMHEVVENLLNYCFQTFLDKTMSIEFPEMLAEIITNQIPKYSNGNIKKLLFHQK
Description: Antagonist activity as displacement of 10 nM [3H]dexamethasone from human Glucocorticoid receptor

[3] = target: T3, Progesterone receptor (Homo sapiens) (UniProt P06401); experiment: Antagonist activity against human Progesterone receptor
T3 sequence (whole entry): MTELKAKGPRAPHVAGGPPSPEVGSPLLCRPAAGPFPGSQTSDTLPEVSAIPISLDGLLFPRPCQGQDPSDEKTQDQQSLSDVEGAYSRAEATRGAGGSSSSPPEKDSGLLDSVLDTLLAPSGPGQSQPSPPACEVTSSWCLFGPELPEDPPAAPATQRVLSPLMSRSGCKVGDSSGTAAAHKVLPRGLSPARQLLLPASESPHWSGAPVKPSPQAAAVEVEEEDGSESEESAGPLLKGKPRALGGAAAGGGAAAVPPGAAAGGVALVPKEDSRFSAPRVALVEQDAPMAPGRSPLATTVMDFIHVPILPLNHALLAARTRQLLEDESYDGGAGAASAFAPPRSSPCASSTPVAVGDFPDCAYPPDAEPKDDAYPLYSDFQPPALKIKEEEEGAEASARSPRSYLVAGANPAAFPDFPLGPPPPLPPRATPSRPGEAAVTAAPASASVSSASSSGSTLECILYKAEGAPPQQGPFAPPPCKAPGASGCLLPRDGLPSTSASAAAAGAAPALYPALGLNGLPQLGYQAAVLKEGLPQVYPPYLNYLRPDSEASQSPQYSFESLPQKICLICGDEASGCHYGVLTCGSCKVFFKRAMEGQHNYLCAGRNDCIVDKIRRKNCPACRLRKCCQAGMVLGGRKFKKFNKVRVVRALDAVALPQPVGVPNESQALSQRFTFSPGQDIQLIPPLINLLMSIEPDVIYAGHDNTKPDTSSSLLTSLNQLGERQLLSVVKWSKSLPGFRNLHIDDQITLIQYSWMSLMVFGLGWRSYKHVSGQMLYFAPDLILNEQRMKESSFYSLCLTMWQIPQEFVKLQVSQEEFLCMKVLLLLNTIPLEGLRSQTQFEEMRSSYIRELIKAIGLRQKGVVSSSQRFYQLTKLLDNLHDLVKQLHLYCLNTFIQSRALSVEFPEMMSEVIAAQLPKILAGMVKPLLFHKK

[4] = target: T1, Mineralocorticoid receptor (Homo sapiens)

Row | SMILES | Kif [1] [nM] | Kif [2] [nM] | Kif [3] [nM] | Kif [4] [nM]
1 | CC#C[C@@]1(O)CC[C@@]2(Cc3ccccc3)c3ccc(O)cc3CC[C@@H]2C1 | > 1000 | 10 | > 1000 | 
2 | O=C1CC[C@@]2(Cc3ccccc3)c3ccc(O)cc3CC[C@@H]2C1 |  |  |  | > 1000

Reference: ChEMBL document CHEMBL1135457 (J Med Chem, 2002)
